Source: patent US6686445B1, “Synthetic antineoplastic agents derived from dolastatin 15 and methods of making same” (Arizona Board of Regents, acting for and on behalf of …, priority 1997, dated 2004)
Where a SMILES comes first, the peptide text is derived from it. [ ]: non-standard residue; d: D form. The star is where a group is joined. NH(2-(2-pyridyl)ethyl) = c1ccc(CCN*)nc1; NH(4-Br-phenethyl) = Brc1ccc(CCN*)cc1; NMe2Val = CC(C)[C@@H](C(=O)*)N(C)C; X5 = O=[N+]([O-])c1ccc(CCN*)cc1; NH(thiazol-2-yl) = c1csc(N*)n1; NHPhenethyl = c1ccc(CCN*)cc1; NMeV = CN[C@H](C(=O)O)C(C)C; Hiv = CC(C)[C@H](O)C(=O)O; X2 = c1ccc2ncc(N*)cc2c1; X4 = COc1ccc(CCN*)cc1OC; X3 = c1ccc2sc(N*)nc2c1; X7 = Clc1cccc(CCN*)c1; NHBn = c1ccc(CN*)cc1; X6 = Fc1ccc(CCN*)cc1; NHPh = c1ccc(N*)cc1; X8 = Clc1ccccc1CCN*

What was measured:
[1] = test system: human CA46 Burkitt lymphoma cells; assay: mitotic arrest in drug-treated CA46 Burkitt cells; format: cell-based; conditions: 80 nM drug for 20 hours, control cells 3% mitotic
Method: To further verify the assumption that this entire series of compounds is acting intracellularly by interfering with tubulin function, the drug-treated Burkitt cells for mitotic arrest were analyzed.

[2] = test system: NCI 60-cell-line in vitro human tumor panel; conditions: read-out: Mean Panel GI50; mean ± S.D. of triplicate tests (* duplicate)
Method: (§1) All compounds synthesized were first evaluated for in vitro antitumor activity against murine P388 lymphocytic leukemia cells and against murine L1210 leukemia cells and human CA46 Burkitt lymphoma cells using techniques described by Hamel & Lin (see: HAMEL, E., and LIN, C. M., […], Interaction of combretastatin, a new plant-derived antimitotic agent, with tubulin, Biochemical Pharmacology, 32, 3864). The compounds were also evaluated in the NCI's human tumor 60-cell-line in intro primary screen as described by Monks et al. (see: MONKS, A., SCUDIERO, et al., 1991, New colorimetric cytotoxicity assay for anticancer drug screening, Journal of the National Cancer Institute, 83, 757). Data analyses were performed using methods described by Boyd and Paull (see: BOYD, M. R., et al., 1995, Some practical considerations and applications of the National Cancer Institute in vitro anticancer drug discovery screen, Drug Development Research, 34, 91). A tubulin polymerization inhibition assay was performed according to a modified version of the procedure used previously and described by Muzaffar et al. (see: MUZAFFAR, A., et al., 1990, Antitubulin effects of derivatives of 3-demethylthiocolchicine, methylthio esters of natural colchicinoids, and thioketones derived from thiocolchicine, Comparison with colchicine, Journal of Medicinal Chemistry, 33, 567) to evaluate the effects of dolastatin 15 on cellular microtubule assembly. The new assay for these compounds employed a drug-tubulin preincubation (15 min.) with 10 μM tubulin in 0.8 M glutamate at 30° C., followed by addition of GTP and incubation (20 min.) at 30° C., with tubulin polymerization monitored turbidimetrically in GILFORD recording spectrophotometers.

[3] = test system: murine L1210 leukemia cells; conditions: read-out: Mouse Leukemia L1210 IC50; cells counted after 24 hours of growth
Method: as §1

[4] = test system: human CA46 Burkitt lymphoma cells; conditions: read-out: Human CA46 Burkitt Lymphoma IC50; cells counted after 20 hours
Method: as §1

[5] = test system: murine P388 lymphocytic leukemia cells; assay: growth inhibition of murine P388 lymphocytic leukemia cells; format: cell-based; conditions: dosage inhibiting tumor cell growth by 50%
Method: as §1

[6] = test system: Erwinia carotovora; assay: antimicrobial disk susceptibility test; format: cell-based; conditions: twofold dilutions
Method: Antimicrobial disk susceptibility tests were performed according to the method established by the National Committee for Clinical Laboratory Standards (NCCLS, 1997). MUELLER-HINTON agar was used for susceptibility testing of Staphylococcus aureus, Enterococcus faecalis, Micrococcus luteus, Escherichia coli, Enterobacter cloacae, Bacillus subtilis, Pseudomonas aeruginosa, and Erwinia carotovora, Gonococcal Typing agar for Neisseria gonorrhoeae, and YM agar for Candida albicans and Cryptococcus neoformans. Immediately prior to susceptibility assays, compounds were reconstituted in sterile DMSO and twofold dilutions applied to sterile 6-mm disks. Zones of inhibition were read at 16 hours for bacterial cultures (except for M. luteus) and 42 hours for fungal cultures and M. luteus. MIC determinations were performed in duplicate.

[7] = test system: tubulin; assay: tubulin polymerization inhibition, 0.8 M glutamate at 30° C.; format: biochemical; conditions: read-out: tubulin assembly IC50
Method: as §1
Since these high molecular weight polymers, like microtubules, scatter light, they make it impossible to quantify drug effects by turbidimetry or centrifugation. […] (no MgCl2 added to reactions).

| SMILES | % Mitotic Cells [1] | GI50 [2] | IC50 [3] | IC50 [4] | Mouse Leukemia P388 ED50 [5] | Minimum inhibitory concentration, Erwinia carotovora [6] | IC50 [7] |
| --- | --- | --- | --- | --- | --- | --- | --- |
| CC(C)[C@H](NC(=O)[C@H](C(C)C)N(C)C)C(=O)N(C)[C@H](C(=O)N1CCC[C@H]1C(=O)N1CCC[C@H]1C(=O)O[C@H](C(=O)NCCc1ccc(F)cc1)C(C)C)C(C)C [Compound 12d] (NMe2Val-V[NMeV]PP[Hiv]-X6) | 46% | 0.89 ± 0.29 nM | 4 nM | 0.8 nM | 0.55 ng/mL | – | – |
| CC(C)[C@H](NC(=O)[C@H](C(C)C)N(C)C)C(=O)N(C)[C@H](C(=O)N1CCC[C@H]1C(=O)N1CCC[C@H]1C(=O)O[C@H](C(=O)NCCc1ccc(Br)cc1)C(C)C)C(C)C [Compound 12h] (NMe2Val-V[NMeV]PP[Hiv]-{NH(4-Br-phenethyl)}) | 48% | 0.81 ± 0.15 nM | 2 nM | 2 nM | 0.36 ng/mL | – | – |
| CC(C)[C@H](NC(=O)[C@H](C(C)C)N(C)C)C(=O)N(C)[C@H](C(=O)N1CCC[C@H]1C(=O)N1CCC[C@H]1C(=O)O[C@H](C(=O)Nc1nc2ccccc2s1)C(C)C)C(C)C [Compound 12q] (NMe2Val-V[NMeV]PP[Hiv]-X3) | 36% | 2.54 nM | 3 nM | 2 nM | 0.45 ng/mL | 50-100 μg/disk | – |
| CC(C)[C@H](NC(=O)[C@H](C(C)C)N(C)C)C(=O)N(C)[C@H](C(=O)N1CCC[C@H]1C(=O)N1CCC[C@H]1C(=O)O[C@H](C(=O)Nc1nccs1)C(C)C)C(C)C [Compound 12p] (NMe2Val-V[NMeV]PP[Hiv]-{NH(thiazol-2-yl)}) | 40% | 1.2 nM | 2 nM | 4 nM | 0.26 ng/mL | 50-100 μg/disk | 8400 nM |
| CC(C)[C@H](NC(=O)[C@H](C(C)C)N(C)C)C(=O)N(C)[C@H](C(=O)N1CCC[C@H]1C(=O)N1CCC[C@H]1C(=O)O[C@H](C(=O)NCCc1ccccn1)C(C)C)C(C)C [Compound 12k] (NMe2Val-V[NMeV]PP[Hiv]-{NH(2-(2-pyridyl)ethyl)}) | 30% | 3 ± 1.04 nM | 4 nM | 2 nM | 0.40 ng/mL | 50-100 μg/disk | – |
| COC(=O)[C@H](Cc1ccccc1)NC(=O)[C@@H](OC(=O)[C@@H]1CCCN1C(=O)[C@@H]1CCCN1C(=O)[C@H](C(C)C)N(C)C(=O)[C@@H](NC(=O)[C@H](C(C)C)N(C)C)C(C)C)C(C)C [Compound 12m] (NMe2Val-V[NMeV]PP[Hiv]F-OMe) | 40% | 3.76 ± 1.05 nM | 3 nM | 1 nM | 0.54 ng/mL | 50-100 μg/disk | – |
| COC(=O)[C@H](CCSC)NC(=O)[C@@H](OC(=O)[C@@H]1CCCN1C(=O)[C@@H]1CCCN1C(=O)[C@H](C(C)C)N(C)C(=O)[C@@H](NC(=O)[C@H](C(C)C)N(C)C)C(C)C)C(C)C [Compound 12n] (NMe2Val-V[NMeV]PP[Hiv]M-OMe) | 44% | 2.93 ± 0.93 nM | 3 nM | 3 nM | 0.55 ng/mL | – | – |
| CC(C)[C@H](NC(=O)[C@H](C(C)C)N(C)C)C(=O)N(C)[C@H](C(=O)N1CCC[C@H]1C(=O)N1CCC[C@H]1C(=O)O[C@H](C(=O)NCc1ccccc1)C(C)C)C(C)C [Compound 12b] (NMe2Val-V[NMeV]PP[Hiv]-NHBn) | 46% | 0.79 ± 0.1 nM | 1 nM | 0.3 nM | 0.42 ng/mL | 50-100 μg/disk | – |
| CC(C)[C@H](NC(=O)[C@H](C(C)C)N(C)C)C(=O)N(C)[C@H](C(=O)N1CCC[C@H]1C(=O)N1CCC[C@H]1C(=O)O[C@H](C(=O)Nc1cnc2ccccc2c1)C(C)C)C(C)C [Compound 12r] (NMe2Val-V[NMeV]PP[Hiv]-X2) | 42% | 2.31 nM | 2 nM | 2 nM | 0.29 ng/mL | 50-100 μg/disk | – |
| COC(=O)[C@@H]1CCCN1C(=O)[C@@H](OC(=O)[C@@H]1CCCN1C(=O)[C@@H]1CCCN1C(=O)[C@H](C(C)C)N(C)C(=O)[C@@H](NC(=O)[C@H](C(C)C)N(C)C)C(C)C)C(C)C [Compound 12o] (NMe2Val-V[NMeV]PP[Hiv]P-OMe) | 42% | 4.48 ± 0.44 nM | 4 nM | 2 nM | 3.1 ng/mL | – | – |
| CC(C)[C@H](NC(=O)[C@H](C(C)C)N(C)C)C(=O)N(C)[C@H](C(=O)N1CCC[C@H]1C(=O)N1CCC[C@H]1C(=O)O[C@H](C(=O)NCCc1ccc([N+](=O)[O-])cc1)C(C)C)C(C)C [Compound 12i] (NMe2Val-V[NMeV]PP[Hiv]-X5) | 36% | 0.94 ± 0.41 nM | 4 nM | 3 nM | 0.60 ng/mL | – | – |
| COc1ccc(CCNC(=O)[C@@H](OC(=O)[C@@H]2CCCN2C(=O)[C@@H]2CCCN2C(=O)[C@H](C(C)C)N(C)C(=O)[C@@H](NC(=O)[C@H](C(C)C)N(C)C)C(C)C)C(C)C)cc1OC [Compound 12j] (NMe2Val-V[NMeV]PP[Hiv]-X4) | 31% | 1.5 ± 0.58 nM | 2 nM | 0.8 nM | 0.40 ng/mL | 50-100 μg/disk | – |
| CC(C)[C@H](NC(=O)[C@H](C(C)C)N(C)C)C(=O)N(C)[C@H](C(=O)N1CCC[C@H]1C(=O)N1CCC[C@H]1C(=O)O[C@H](C(=O)NCCc1ccccc1)C(C)C)C(C)C [Compound 12c, N-[(2S)-O-[(N,N-Dimethyl-valyl)-valyl-(N-methyl-valyl)-prolyl-prolyl]-2-hydroxyisovalerlyl]-2-phenethylamide] (NMe2Val-V[NMeV]PP[Hiv]-NHPhenethyl) | 45% | 1.06 ± 0.48 nM | 2 nM | 0.3 nM | 0.26 ng/mL | 50-100 μg/disk | – |
| CC(C)[C@H](NC(=O)[C@H](C(C)C)N(C)C)C(=O)N(C)[C@H](C(=O)N1CCC[C@H]1C(=O)N1CCC[C@H]1C(=O)O[C@H](C(=O)NCCc1cccc(Cl)c1)C(C)C)C(C)C [Compound 12f] (NMe2Val-V[NMeV]PP[Hiv]-X7) | 38% | 0.83 ± 0.41 nM | 4 nM | 2 nM | 0.37 ng/mL | – | – |
| CC(C)[C@H](NC(=O)[C@H](C(C)C)N(C)C)C(=O)N(C)[C@H](C(=O)N1CCC[C@H]1C(=O)N1CCC[C@H]1C(=O)NCc1ccccc1)C(C)C [LU103793, N-dimethyl-L-valyl-L-valyl-N-methyl-L-valyl-L-prolyl-L-prolyl-benzamide] (NMe2Val-V[NMeV]PP-NHBn) | – | – | – | – | – | – | 4000 ± 600 nM |
| CC(C)[C@H](NC(=O)[C@H](C(C)C)N(C)C)C(=O)N(C)[C@H](C(=O)N1CCC[C@H]1C(=O)N1CCC[C@H]1C(=O)O[C@H](C(=O)Nc1ccccc1)C(C)C)C(C)C [Compound 12a] (NMe2Val-V[NMeV]PP[Hiv]-NHPh) | 26% | 1.25 ± 0.48 nM | 3 nM | 2 nM | 0.52 ng/mL | – | 26000 nM |
| CC(C)[C@H](NC(=O)[C@H](C(C)C)N(C)C)C(=O)N(C)[C@H](C(=O)N1CCC[C@H]1C(=O)N1CCC[C@H]1C(=O)O[C@H](C(=O)NCCc1ccccc1Cl)C(C)C)C(C)C [Compound 12g] (NMe2Val-V[NMeV]PP[Hiv]-X8) | 26% | 0.81 ± 0.31 nM | 4 nM | 2 nM | 0.33 ng/mL | – | – |
